Several values for one entry are separate records, joined by “and”; a condition that tells them apart may be missing. Equal entries are not always repeated.

1 compound from US20250304990A1, “HERBICIDE RESISTANCE” (SYNGENTA CROP PROTECTION AG, priority 2021, published 2025) can be followed below.

The subject of one assay is Cf-496-75. The assay is described as follows: Dose response test, growth in 96-well plates. It is filed as cell-based, Chlorella fusca. The following applies: strain Cf-496-75; no growth, visual inspection.
The test system of a further assay is Cf-496-2. In words: Dose response test, growth in 96-well plates. It is filed as cell-based, Chlorella fusca. As to conditions: strain Cf-496-2; no growth, visual inspection.
A further assay relates to Cf-496-6. The assay is described as follows: Dose response test, growth in 96-well plates. It is filed as cell-based, Chlorella fusca. As to conditions: strain Cf-496-6; no growth, visual inspection.
Assay [1] concerns D4426 (V263A mutant Oryza sativa HST) containing tobacco plant. In words: Herbicide damage score after spraying, Example 4. It counts as in vivo. The following applies: T1 B5u 500 gai/ha; D4426 V263A; averaged across transgenic population. How it is done:
(§1) In order to determine if the newly discovered mutations detailed in Example 1 confer resistance to HST inhibiting compounds when expressed in plants, GM tobacco lines were produced and tested with HST inhibiting compounds. Transgenic tobacco plants expressing the Oryza sativa HST gene with and without mutations were tested.
(§2) Populations of transgenic tobacco comprising 20-30 transgenic events per plant transformation constructs were generated as described in Example 2. These lines were clonally propagated and 1 clone per event was sprayed with 500, 100 or 50 g ai/ha of compound 1+0.2% (w/v) Genapol X080 with a spray volume of 200 L/Ha. (“g ai/ha” refers to grams of active compound per hectare).
(§3) Herbicidal damage was visually assessed across the population and a herbicide damage score given at 7 and 14 days. A score of 0 indicates no visible damage or stunting whereas a score of 100 indicates a complete death of the plant. 20 transgenic events (i.e. individual transgenic plants) from each GM tobacco line were transplanted to soil 1 week prior to spraying with HST inhibiting compounds. WT tobacco was included as a control. The mutated genes are identified in Table 16 below.
(§4) The values in Tables 17 to 23 below refer to percentage of damage to the tested plants and show the damage scores for 20 populations of plants expressing either Oryza sativa WT HST gene (SEQ ID NO. 18), the Oryza sativa HST mutated gene according to SEQ ID NO. 47, the Oryza sativa HST mutated gene according to SEQ ID NO. 48, the Oryza sativa HST mutated gene according to SEQ ID NO. 49, the Oryza sativa HST mutated gene according to SEQ ID NO. 50, or the Oryza sativa HST mutated gene according to SEQ ID NO. 51. A control population of wild-type Samsun tobacco was also assessed for herbicide damage. […] However the mutated versions of the HST gene carrying the F262I, V263A, […], or F266L mutations (SEQ ID NOs: 47, 48, 50 or 51) clearly display increased tolerance.

For assay [2], the system named is D4424 (WT Oryza sativa HST) containing tobacco plant. In words: Herbicide damage score after spraying, Example 4. It is filed as in vivo. How it is done:
as §1, §2, §3, §4

Assay [3] relates to D4427 (T264N mutant Oryza sativa HST) containing tobacco plant. In words: Herbicide damage score after spraying, Example 4. It counts as in vivo. As to conditions: T1 B5u 500 gai/ha. As for the experimental part: as §1, §2, §3, §4
For assay [4], the system named is D4428 (F266I mutant Oryza sativa HST) containing tobacco plant. The assay is described as follows: Herbicide damage score after spraying, Example 4. It counts as in vivo. The following applies: T1 B5u 500 gai/ha, averaged across transgenic population. As for the experimental part: as §1, §2, §3, §4
The subject of assay [5] is D4425 (F262I mutant Oryza sativa HST) containing tobacco plant. In words: Herbicide damage score after spraying, Example 4. It counts as in vivo. As to conditions: T1 B5u 500 gai/ha, averaged across transgenic population. How it is done:
as §1, §2, §3, §4

In assay [6] the test system is D4429 (F266L mutant Oryza sativa HST) containing tobacco plant. In words: Herbicide damage score after spraying, Example 4. It is filed as in vivo. As to conditions: T1 B5u 500 gai/ha, averaged across transgenic population. As for the experimental part: as §1, §2, §3, §4
For a further assay, the system named is WT tobacco. In words: Herbicide damage score after spraying, Example 4. As to conditions: T1 B5u 500 gai/ha; WT tobacco (Example 4); per plant. It is filed as in vivo. How it is done: as §1, §2, §3, §4
The next assay concerns Cf-496-85. In words: Dose response test, growth in 96-well plates. It counts as cell-based, Chlorella fusca. The following applies: strain Cf-496-85; no growth, visual inspection. As for the experimental part: (§5) Dose response tests with B5U were set-up in 96-well, flat bottomed plates. 200 μl medium was used in each well. 2 μl of 6 day old culture was added to each well, then 2 μl of DMSO or dilution of test compound were added to respective wells. 2-fold dilutions starting at 100 ppm were used per well. Plates were incubated at 25° C., 50 μmol/m^2/s, 16 hour photoperiod.
(§6) This was assessed by a visual inspection of growth in the 96-well plate. The inhibitor concentration at which no growth is observed is then defined as the LD.

For a further assay, the system named is Cf-496-65. In words: Dose response test, growth in 96-well plates. It counts as cell-based, Chlorella fusca. As to conditions: strain Cf-496-65; no growth, visual inspection. How it is done: as §5, §6
The subject of another assay is Cf-496-78. In words: Dose response test, growth in 96-well plates. It counts as cell-based, Chlorella fusca. As to conditions: strain Cf-496-78 (F275I); no growth, visual inspection. How it is done: as §5, §6

Regarding `Cc1nn(C)c(=O)c(-c2c(F)ccc(Cl)c2CCc2ccc(C(F)(F)F)cc2)c1OC(=O)C(C)C` [B5u, [5-[3-chloro-6-fluoro-2-[2-[4-(trifluoromethyl)phenyl]ethyl]phenyl]-1,3-dimethyl-6-oxo-pyridazin-4-yl]2-methylpropanoate], the “LD (lethal dose)” value is on record as 6.25 ppm in the assay on Cf-496-75; 6.25 ppm in the assay with Cf-496-2; above 100 ppm with Cf-496-6; above 100 ppm in the assay with Cf-496-85; above 100 ppm in the assay on Cf-496-65; above 100 ppm in the assay on Cf-496-78. In addition, the Average percentage damage in assay [1] is 24%; in assay [2] (T1 B5u 500 gai/ha, D4424, mutation n.a., averaged across transgenic population) it was 31%; in assay [3] (D4427 T264N, averaged across transgenic population), 67%; in assay [4], 56%; in assay [5] it was 38%; in assay [6], 40%. Besides, in assay [2] (overexpression of Oryza sativa HST gene (SEQ ID NO.18) in tobacco), the tolerance to herbicide entry was “does not increase tolerance”. In addition, the percentage of damage in assay [3] (D4427 OsHST V003 T264N, per event) was 50%; in the assay with WT tobacco it was 98% and 97% and 96% and 95%.
